Assay [1] deals with gamma-irradiated mice. The settings on record: cited from earlier work; for protection against gamma-irradiation (in words): mouse, in vivo.
The subject of assay [2] is radiation exposure. The settings on record: in vivo; cited from earlier work.
Assay [3] relates to BALB/c mice exposed whole body to 10 Gy 137Cs-γ-irradiation. In words: Whole body γ-irradiation (10 Gy), peptide 1.5 hours before irradiation. In kind it is in vivo. The settings on record: 10 mg/kg i.p. 1.5 hours before 10 Gy; for Watery eyes / Weight loss: affected/total; for Mortality: dead/total. How it is done:
(§1) In the first experiment, 12-week-old female BALB/c mice were treated intraperitoneally with a single injection of either PBS (n=9) or with a peptide (LQGV (SEQ ID NO:117), VLPALP (SEQ ID NO:140), LPGCPRGVNPVVS (SEQ ID NO:114), MTRVLQGVLPALPQVVC (SEQ ID NO:113); n=8, 10 mg/kg). One and a half hours after the treatment, mice were exposed whole body to a single dose of 10 Gy ^137Cs-γ-irradiation. In the second experiment, 12-week-old female BALB/c mice were first exposed whole body to a single dose of 10 Gy ^137Cs-γ-irradiation and then 1.5 hours after the irradiation treated intraperitoneally with a single injection of either PBS (n=9) or with a peptide (n=8 or 9, 10 mg/kg).

For assay [4] the test system is unchanged. Briefly: Whole body γ-irradiation (10 Gy), peptide 1.5 hours after irradiation. In kind it is in vivo. The settings on record: 10 mg/kg i.p. 1.5 hours after 10 Gy; for Watery eyes / Weight loss: affected/total; for Mortality: dead/total. How it is done: as §1
The test system of assay [5] is gamma-irradiated mice. The settings on record: cited from earlier work.

For the compound `C[C@]12CC[C@H](O)CC1=CC[C@@H]1[C@@H]2CC[C@]2(C)C(=O)CC[C@@H]12` [DHEA, dehydroepiandrosterone], the “protection against gamma-irradiation (in words)” value in assay [1] is “No protection was observed”.

As for `O=C(O)c1ccc(/C=C/S(=O)(=O)Cc2ccc(Cl)cc2)cc1` [ON-01210, 4-carboxystyrl-4-chlorobenzylsulfone], the “radiation protection activity (in words)” value in assay [2] was “protective only if it is given pre-radiation exposure”.

Consider `C[C@]12CC[C@H]3[C@@H](CC=C4C[C@@H](O)CC[C@@]43C)[C@@H]1CC[C@@H]2O` [Peptide 5-AED, 5-androstenediol], for which the dose reduction factor in assay [1] (sc administration prior to WBI, from probit survival curves) was 1.3.

Turning to “MTRVLQGVLPALPQVVC [residues 41-57 of loop 2 of the beta-subunit of hCG]”, the Watery eyes in assay [3] (day 0 after irradiation) was 0/8; in assay [3] (day 4 after irradiation) it was 1/8; in assay [4] (day 0 after irradiation), 0/9; in assay [4] (day 4 after irradiation), 0/9. Also, the Weight loss in assay [3] (day 0 after irradiation) was 0/8; in assay [3] (day 4 after irradiation), 1/8; in assay [4] (day 0 after irradiation) it was 0/9; in assay [4] (day 4 after irradiation), 9/9. Also, the Mortality in assay [3] (day 0 after irradiation) is on record as 0/8; in assay [3] (day 3 after irradiation), 0/8; in assay [3] (day 4 after irradiation), 0/8; in assay [3] (day 5 after irradiation) it was 0/8; in assay [3] (day 6 after irradiation), 7/8; in assay [3] (day 7 after irradiation) it was 8/8. Further, the Mortality is 0/9 in assay [4] (day 0 after irradiation); 0/9 in assay [4] (day 3 after irradiation); 0/9 in assay [4] (day 4 after irradiation); 0/9 in assay [4] (day 5 after irradiation); 5/9 in assay [4] (day 6 after irradiation); 9/9 in assay [4] (day 7 after irradiation).

With `O=c1c(-c2ccc(O)cc2)coc2cc(O)cc(O)c12` [genisteine], the “Dose reduction Factor (DRF)” value in assay [5] (best dose 200 mg/kg, 24 hours before irradiation) is listed as 1.16. Besides, the “radioprotection (in words)” value in assay [5] (given one hour prior to whole body irradiation) is “no radioprotection was observed”.

On to `C[C@]12CC[C@H]3[C@@H]([C@@H](O)C=C4C[C@@H](O)CC[C@@]43C)[C@@H]1CC[C@@H]2O` [AET, 5-androstene-3B,7B, 17B-triol], for which the “protection against gamma-irradiation (in words)” value in assay [1] is “No protection was observed”.

`C[C@]12CCC(=O)C=C1CC[C@@H]1[C@@H]2CC[C@]2(C)C(=O)CC[C@@H]12` [androstenedione]: in assay [1], the “protection against gamma-irradiation (in words)” value was “No protection was observed”.

The record behind these values is patent US7795226B2, “Control of radiation injury” (Biotempt B.V., priority 2006, dated 2010).
